Source: PMC12142043, “Cell-based high-content approach for SARS-CoV-2 neutralization identifies unique monoclonal antibodies and PI3K pathway inhibitors” (Frontiers in Cell and Developmental Biology, 2025)
Structures can show the parent of a compound that is named as a salt. Where two headings read alike, the source gives them in different places.

System: SARS-CoV-2 (USA-WA1/2020) in Calu-3 cells
Format: cell-based
[1] = high dose (10 µM), Calu-3, 48 h
[2] = low dose (100 nM), Calu-3, 48 h

| SMILES | dsRNA signal, AU High [1] | dsRNA signal, AU Low [2] | dsRNA signal, AU High | dsRNA signal, AU Low |
| --- | --- | --- | --- | --- |
| Cc1ccc(C(=O)Nc2ccc(CN3CCN(C)CC3)c(C(F)(F)F)c2)cc1C#Cc1cnc2[nH]ncc2c1 [GZD824] | 64275.0 AU | 33439.8 AU |  |  |
| O=c1c(O)c(-c2ccccc2)oc2cc(O)cc(O)c12 [Galangin;3,5,7-Trihydroxyflavone] | 16189.5 AU | 46015.9 AU |  |  |
| COc1cc2ncnc(Nc3ccc(F)c(Cl)c3)c2cc1OCCCN1CCOCC1.Cl [Gefitinib hydrochloride] |  |  | 0.0 | 28000.5 |
| CC(C)=CCC[C@](C)(O[C@@H]1O[C@H](CO[C@@H]2O[C@H](CO)[C@@H](O)[C@H](O)[C@H]2O)[C@@H](O)[C@H](O)[C@H]1O)[C@H]1CC[C@]2(C)[C@@H]1[C@H](O)C[C@@H]1[C@@]3(C)CC[C@H](O[C@@H]4O[C@H](CO)[C@@H](O)[C@H](O)[C@H]4O[C@@H]4O[C@H](CO)[C@@H](O)[C@H](O)[C@H]4O)C(C)(C)[C@@H]3CC[C@]12C [Ginsenoside Rb1] | 7414.4 AU | 52585.8 AU |  |  |
| CC(C)=CCC[C@](C)(O[C@@H]1O[C@H](CO)[C@@H](O)[C@H](O)[C@H]1O)[C@H]1CC[C@]2(C)[C@@H]1[C@H](O)C[C@@H]1[C@@]3(C)CC[C@H](O)C(C)(C)[C@@H]3[C@@H](O[C@@H]3O[C@H](CO)[C@@H](O)[C@H](O)[C@H]3O[C@@H]3O[C@@H](C)[C@H](O)[C@@H](O)[C@H]3O)C[C@]12C [Ginsenoside Re] | 10054.1 AU | 65920.2 AU |  |  |
| CC(C)=CCC[C@](C)(O)[C@H]1CC[C@]2(C)[C@@H]1[C@H](O)C[C@@H]1[C@@]3(C)CC[C@H](O[C@@H]4O[C@H](CO)[C@@H](O)[C@H](O)[C@H]4O)C(C)(C)[C@@H]3CC[C@]12C [Ginsenoside Rh2] | 41827.1 AU | 30569.1 AU |  |  |
| COc1ccc2c(c1)c(C1=C(c3c[nH]c4ccccc34)C(=O)NC1=O)cn2CCCN(C)C [Go 6983] | 52923.0 AU | 26190.1 AU |  |  |
| CN1CCN(C2CCN(C(=O)Nc3cc(Oc4ccc(NC(=O)C5(C(=O)Nc6ccc(F)cc6)CC5)c(F)c4)ccn3)CC2)CC1 [Golvatinib (E7050)] | 36777.1 AU | 23267.5 AU |  |  |
| Cl.Cl.O=S(=O)(NCCNC/C=C/c1ccc(Br)cc1)c1cccc2cnccc12 [H 89 2HCl] | 7807.6 AU | 56279.7 AU |  |  |
| Cl.O=S(=O)(c1cccc2cnccc12)N1CCNCC1 [HA-100 (hydrochloride)] | 27295.9 AU | 14084.7 AU |  |  |
| CCOC(=O)c1cnc2ccc(-c3cncc(NS(=O)(=O)c4ccccc4)c3)cn12 [HS-173] | 345.7 AU | 31987.4 AU |  |  |
| Cc1nc(Nc2cnn(C3CCNCC3)c2)nc2c1N(C)C(=O)c1cc3ccccc3cc1N2C [HTH-01-015] | 4731.3 AU | 21129.9 AU |  |  |
| COc1ccc2c(c1)[nH]c1c(C)nccc12 [Harmine hydrochloride] | 0.0 AU | 53937.1 AU |  |  |
| COc1ccc2c(c1)[nH]c1c(C)nccc12 [Harmine] | 9958.7 AU | 24294.0 AU |  |  |
| Cl.O=c1[nH]ccc2c(S(=O)(=O)N3CCCNCC3)cccc12 [Hydroxyfasudil hydrochloride] | 2331.1 AU | 751.7 AU |  |  |
| COc1cc(OC)c(C=C2C(O)=Nc3ccccc32)c(OC)c1 [IC261] | 6564.9 AU | 46952.8 AU |  |  |
| O=C(Nc1cc(C(F)(F)F)cc(C(F)(F)F)c1)c1cc(Cl)ccc1O [IMD 0354] | 3341.9 AU | 20862.1 AU |  |  |
| CNC(=O)c1ccc(-c2cnc3ncc(Cc4ccc5ncccc5c4)n3n2)cc1F [INCB28060] | 59276.3 AU | 63091.3 AU |  |  |
| COc1cc(N2CCOCC2)ccc1NC(=O)c1csc(-c2cccnc2)n1 [IRAK inhibitor 6] | 19776.5 AU | 7334.0 AU |  |  |
| O=C(Nc1nc2ccccc2n1CCN1CCOCC1)c1cccc([N+](=O)[O-])c1 [IRAK-1-4 Inhibitor I] | 21347.7 AU | 22363.0 AU |  |  |
| C#Cc1cccc(Nc2ncnc3cc4c(cc23)OCCOCCOCCO4)c1 [Icotinib] | 11365.1 AU | 24561.1 AU |  |  |
| Nc1nc(Nc2ccc(S(N)(=O)=O)cc2)nn1C(=O)c1c(F)cccc1F [JNJ-7706621] | 0.0 AU | 4378.3 AU |  |  |
| Cn1cc(-c2ccc3nnc(C(F)(F)c4ccc5ncccc5c4)n3n2)cn1 [JNJ-38877605] | 9345.0 AU | 32468.4 AU |  |  |
| CN(C)C/C=C/C(=O)Nc1cccc(C(=O)Nc2ccc(Nc3nccc(-c4cccnc4)n3)cc2)c1 [JNK-IN-7] | 66910.1 AU | 45982.8 AU |  |  |
| COc1cc(-c2cc(-c3cccc(O)c3)cnc2N)cc(OC)c1OC [K02288] | 4456.5 AU | 7061.1 AU |  |  |
| COc1ccc(S(=O)(=O)Nc2ccccc2CN(C)C/C=C/c2ccc(Cl)cc2)cc1.Cl [KN-92 hydrochloride] | 0.0 AU | 14359.5 AU |  |  |
| COc1ccc(S(=O)(=O)Nc2ccccc2CN(C)C/C=C/c2ccc(Cl)cc2)cc1.O=P(O)(O)O [KN-92 phosphate] | 4429.3 AU | 16946.8 AU |  |  |

| SMILES | dsRNA signal, AU High [1] | dsRNA signal, AU Low [2] | dsRNA signal, AU High | dsRNA signal, AU Low |
| --- | --- | --- | --- | --- |
| COc1ccc(S(=O)(=O)N(CCO)c2ccccc2CN(C)C/C=C/c2ccc(Cl)cc2)cc1.O=P(O)(O)O [KN-93 Phosphate] | 4943.4 AU | 2840.4 AU |  |  |
| Nc1ccc(/C=C/C(=O)NCc2cc3cc(-c4ccc(C(=O)N5CCC(F)(F)CC5)cc4)cc(-c4ccc(F)cc4)c3o2)cn1 [KPT-9274] | 6803.0 AU | 25813.6 AU |  |  |
| CCCNC(=O)Nc1ccc(Oc2ncnc3cc(OC)c(OC)cc23)cc1Cl [KRN 633] | 55097.1 AU | 35164.2 AU |  |  |
| O=c1cc(-c2cccc3c2Sc2ccccc2S3)oc(N2CCOCC2)c1 [KU 55933] | 33867.0 AU | 52307.6 AU |  |  |
| C[C@@H]1CN(CC(=O)Nc2ccc3c(c2)Cc2cccc(-c4cc(=O)cc(N5CCOCC5)o4)c2S3)C[C@H](C)O1 [KU-60019] | 31471.9 AU | 10671.9 AU |  |  |
| COc1cc2nccc(Oc3ccc(NC(=O)Nc4ccc(F)cc4F)c(F)c3)c2cc1OC [Ki8751] | 16810.1 AU | 45822.4 AU |  |  |
| COc1cc(Oc2ccnc3cc(OC)c(OC)cc23)ccc1NC(=O)NC(C)c1nccs1 (stereo not shown) [Ki20227] | 0.0 AU | 13064.0 AU |  |  |
| CC(C)C[C@H](N)C(=O)O [L-Leucine] | 3716.4 AU | 18120.1 AU |  |  |
| COc1ccccc1-c1cc(Nc2cccc(CS(N)(=O)=O)c2)ncn1 [LDC000067] | 31035.0 AU | 20712.1 AU |  |  |
| Cl.c1ccc2c(-c3cnn4cc(-c5ccc(N6CCNCC6)cc5)cnc34)ccnc2c1 [LDN193189 Hydrochloride] | 42525.8 AU | 24650.0 AU |  |  |
| c1ccc2c(-c3cnn4cc(-c5ccc(N6CCNCC6)cc5)cnc34)ccnc2c1 [LDN-193189] | 30043.0 AU | 7399.9 AU |  |  |
| COc1cc(-c2cc(-c3ccc(N4CCNCC4)cc3)cnc2C)cc(OC)c1OC [LDN-214117] | 4693.4 AU | 28899.6 AU |  |  |
| C/C(O)=C(\C#N)C(=O)Nc1cc(Br)ccc1Br [LFM-A13] | 60025.3 AU | 42758.8 AU |  |  |
| c1ccc(-c2[nH]ncc2-c2ccnc3ccccc23)nc1 [LY364947] | 12638.5 AU | 3456.2 AU |  |  |
| O=C1NC(=O)C(c2cnc3ccccn23)=C1c1cn2c3c(cc(F)cc13)CN(C(=O)N1CCCCC1)CC2 [LY2090314] | 16169.3 AU | 7523.7 AU |  |  |
| c1ccc(-c2nn3c(c2-c2ccnc4cc(OCCN5CCOCC5)ccc24)CCC3)nc1 [LY2109761] | 9694.6 AU | 5823.5 AU |  |  |
| Cc1cccc(-c2nn3c(c2-c2ccnc4ccc(C(N)=O)cc24)CCC3)n1 [LY2157299] | 33079.0 AU | 15107.1 AU |  |  |
| CC(C)(C)Cn1c(N)nc2ccc(-c3[nH]c(C(C)(C)C)nc3-c3ccc(F)cc3)nc21 [LY2228820] | 88.7 AU | 5927.3 AU |  |  |
| Cn1cc(-c2ccc(F)c(C(F)(F)F)c2)nc1C1CCN(c2ncnc3[nH]ncc23)CC1 [LY2584702] | 5638.3 AU | 15579.4 AU |  |  |
| Cc1cnc(NC(=O)Nc2cc(Br)c(C)cc2OC[C@@H]2CNCCO2)cn1 [LY2603618] | 13995.2 AU | 6197.3 AU |  |  |
| CCN1CCN(Cc2ccc(Nc3ncc(F)c(-c4cc(F)c5nc(C)n(C(C)C)c5c4)n3)nc2)CC1 [LY2835219 free base] | 59180.8 AU | 26611.9 AU |  |  |
| C[C@@H](Oc1ccc2[nH]nc(/C=C/c3cnn(CCO)c3)c2c1)c1c(Cl)cncc1Cl [LY2874455] | 11432.5 AU | 3320.6 AU |  |  |
| Cn1nccc1Nc1nccc(-c2cc3c(s2)C(C)(C)N(CCN2CCOCC2)C3=O)n1 [LY3214996] | 4594.5 AU | 22927.9 AU |  |  |
| O=c1cc(N2CCOCC2)oc2c(-c3ccccc3)cccc12 [LY 294002] | 11164.3 AU | 43579.3 AU |  |  |
| COc1cc2nccc(Oc3ccc(NC(=O)NC4CC4)c(Cl)c3)c2cc1C(N)=O [Lenvatinib (E7080)] | 26964.0 AU | 55504.0 AU |  |  |
| CCN(CC)CC(=O)Nc1c(C)cccc1C [Lidocaine] | 26152.6 AU | 999.3 AU |  |  |
